The record followed here is patent publication US20160374944A1, “COMPOSITIONS AND METHODS FOR TREATING AND PREVENTING CANCER BY TARGETING AND INHIBITING CANCER STEM CELLS” (priority 2011, published 2016).

One assay deals with Pancreatic CSCs. As to the kind of experiment: caspase-3/7 activity. It counts as cell-based, human. The procedure:
(A and B) Induction of apoptosis and activation of caspase-3/-7. Pancreatic CSCs were treated with rottlerin (0-2 μM) for 48 h, and apoptosis and caspase-3/-7 activity were measured by […] and colorometric assay, respectively. […] (C) Pancreatic CSCs were treated with rottlerin (0-1 μM) for 48 h, and the expression of Bcl-2, XIAP and Survivin was measured by qRT-PCR and normalized to GAPDH.
(A) Regulation of caspase-3/7 activity by EGCG. CSCs were treated with EGCG (0-60 μM) for 24 h, and caspase-3/7 activity was measured as per manufacturer's instructions. […] (B) Regulation of apoptosis by EGCG. CSCs were treated with EGCG (0-60 μM) for 48 h, and apoptosis was measured by TUNEL assay. […] (C) Regulation of apoptosis-related proteins. Pancreatic CSCs were treated with EGCG (0-60 μM) for 36 h. Real time PCR (q-RT-PCR) was performed to examine the expression of Bcl-2, survivin, XIAP, and GAPDH.

Assay [1] has as its system Gli transcriptional activity in pancreatic CSCs. As to the kind of experiment: Gli-responsive GFP/firefly luciferase reporter. Format: cell-based, human. The protocol: (A) Pancreatic CSCs were treated with rottlerin (0-1 μM) for 24 h. The expression of Patched-1, Smo and Gli-2 was measured by qRT-PCR. […] (B) Pancreatic CSCs were transduced with Gli-responsive GFP/firefly luciferase viral particles (pGreen Fire1-Gli with EF1, System Biosciences). After transduction, culture medium was replaced and CSCs were treated with rottlerin (0-2 μM) for 24 h. Gli-responsive reporter activity was measured using a luciferase assay (Promega Corporation).
FIG. 40A and FIG. 40C are graphs and photographs showing the inhibition of components of sonic hedgehog pathway, Gli transcription and nuclear translocation by EGCG. (A) Inhibition of components of sonic hedgehog pathway and Gli transcription. Pancreatic CSCs were treated with EGCG (0-60 μM) for 36 h. The expression of Smothened (Smo), patched 1 (PTCH1), patched 2 (PTCH2), was measured by q-RT-PCR. […] (B) Inhibition of Gli1 and Gli2 expression and Gli transcription. Pancreatic CSCs were treated with EGCG (0-60 μM) for 36 h. The expression of Gli1 and Gli2 was measured by q-RT-PCR. Gli reporter activity. CSCs were transduced with Gli-responsive GFP/firefly luciferase viral particles (pGreen Fire1-Gli with EF1, System Biosciences). After transduction, culture medium was replaced and CSCs were treated with EGCG (0-60 μM) for 24 h. Gli-responsive reporter activity was measured by luciferase assay (Promega Corporation). […] Stained cells were mounted and visualized under a fluorescence microscope. Blue fluorescence of DAPI was changed to red color for a better contrast.
FIG. 42A and FIG. 42B show graphs showing quercetin synergizes with EGCG to inhibit self-renewal capacity, invasion, migration, and TCF/LEF and Gli transcriptional activities in pancreatic CSCs. […] Cell viability was measured by trypan blue assay. […] At the end of incubation period, colonies were counted. […] Cells invaded to the lower chambered were fixed with methanol, stained with crystal violet and counted. […] Cells migrated to the lower chambered were fixed with methanol, stained with crystal violet and counted. […] Apoptosis was measured by TUNEL assay. […]

Regarding `O=C(O[C@@H]1Cc2c(O)cc(O)cc2O[C@@H]1c1cc(O)c(O)c(O)c1)c1cc(O)c(O)c(O)c1` [EGCG, epigallocatechin gallate], the caspase-3/7 activity entry with Pancreatic CSCs (EGCG 0-60 μM, 24 h) was “induced caspase-3/7 activity and apoptosis in pancreatic CSCs in a dose-dependent manner”. For the same compound, the Gli transcriptional activity result is “inhibited Gli transcriptional activity in a dose-dependent manner” in assay [1] (EGCG 0-60 μM, 24 h, luciferase assay) and “inhibited” in assay [1] (EGCG 40 μM with or without quercetin 20 μM, 48 hrs, luciferase).

In the case of `CC(=O)c1c(O)c(C)c(O)c(Cc2c(O)c3c(c(C(=O)/C=C/c4ccccc4)c2O)OC(C)(C)C=C3)c1O` [rottlerin], the caspase-3/-7 activity entry in the assay on Pancreatic CSCs (rottlerin 0-2 μM, 48 h, colorometric assay) is recorded as “induced”. For the same compound, the Gli transcriptional activity entry in assay [1] (rottlerin 0-2 μM, 24 h, luciferase assay) is reported as “inhibited Gli transcriptional activity in a dose-dependent manner”.
